Data on 22 compounds can be found in patent US20260062387A1, “SALT-INDUCIBLE KINASE INHIBITOR COMPOUND AND PHARMACEUTICAL COMPOSITION INCLUDING THE SAME” (MITSUBISHI TANABE PHARMA CORPORATION, priority 2023, published 2026).

Holding throughout (type): biochemical
One assay concerns the target GST-tagged SIK1 (Homo sapiens (Human), UniProt P57059). Nature of the assay: SIK1 inhibition test (ADP-Glo Max Assay). As to conditions: enzyme 20 nM, AMARA Peptide 200 μM, ATP 1 mM, 2 hours room temperature. In short, it runs like this:
(§1)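 GST-tagged human SIK1, SIK2 and SIK3 at 20 nM, 3 nM and 100 nM final in Tris pH 7.5 buffer, with AMARA peptide (200 μM for SIK1/SIK2, 100 μM for SIK3), 1 mM ATP and 5 mM MgCl2. Reaction ran 2 h at room temperature. ADP read by ADP-Glo Max luminescence, and IC50 fitted from 16 concentrations.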

In a further assay the target is GST-tagged SIK3 (Homo sapiens (Human), UniProt Q9Y2K2). Nature of the assay: SIK3 inhibition test (ADP-Glo Max Assay). Conditions: enzyme 100 nM, AMARA Peptide 100 μM, ATP 1 mM, 2 hours room temperature. In short, it runs like this: as §1
GST-tagged SIK3, sequence (Q9Y2K2 whole entry): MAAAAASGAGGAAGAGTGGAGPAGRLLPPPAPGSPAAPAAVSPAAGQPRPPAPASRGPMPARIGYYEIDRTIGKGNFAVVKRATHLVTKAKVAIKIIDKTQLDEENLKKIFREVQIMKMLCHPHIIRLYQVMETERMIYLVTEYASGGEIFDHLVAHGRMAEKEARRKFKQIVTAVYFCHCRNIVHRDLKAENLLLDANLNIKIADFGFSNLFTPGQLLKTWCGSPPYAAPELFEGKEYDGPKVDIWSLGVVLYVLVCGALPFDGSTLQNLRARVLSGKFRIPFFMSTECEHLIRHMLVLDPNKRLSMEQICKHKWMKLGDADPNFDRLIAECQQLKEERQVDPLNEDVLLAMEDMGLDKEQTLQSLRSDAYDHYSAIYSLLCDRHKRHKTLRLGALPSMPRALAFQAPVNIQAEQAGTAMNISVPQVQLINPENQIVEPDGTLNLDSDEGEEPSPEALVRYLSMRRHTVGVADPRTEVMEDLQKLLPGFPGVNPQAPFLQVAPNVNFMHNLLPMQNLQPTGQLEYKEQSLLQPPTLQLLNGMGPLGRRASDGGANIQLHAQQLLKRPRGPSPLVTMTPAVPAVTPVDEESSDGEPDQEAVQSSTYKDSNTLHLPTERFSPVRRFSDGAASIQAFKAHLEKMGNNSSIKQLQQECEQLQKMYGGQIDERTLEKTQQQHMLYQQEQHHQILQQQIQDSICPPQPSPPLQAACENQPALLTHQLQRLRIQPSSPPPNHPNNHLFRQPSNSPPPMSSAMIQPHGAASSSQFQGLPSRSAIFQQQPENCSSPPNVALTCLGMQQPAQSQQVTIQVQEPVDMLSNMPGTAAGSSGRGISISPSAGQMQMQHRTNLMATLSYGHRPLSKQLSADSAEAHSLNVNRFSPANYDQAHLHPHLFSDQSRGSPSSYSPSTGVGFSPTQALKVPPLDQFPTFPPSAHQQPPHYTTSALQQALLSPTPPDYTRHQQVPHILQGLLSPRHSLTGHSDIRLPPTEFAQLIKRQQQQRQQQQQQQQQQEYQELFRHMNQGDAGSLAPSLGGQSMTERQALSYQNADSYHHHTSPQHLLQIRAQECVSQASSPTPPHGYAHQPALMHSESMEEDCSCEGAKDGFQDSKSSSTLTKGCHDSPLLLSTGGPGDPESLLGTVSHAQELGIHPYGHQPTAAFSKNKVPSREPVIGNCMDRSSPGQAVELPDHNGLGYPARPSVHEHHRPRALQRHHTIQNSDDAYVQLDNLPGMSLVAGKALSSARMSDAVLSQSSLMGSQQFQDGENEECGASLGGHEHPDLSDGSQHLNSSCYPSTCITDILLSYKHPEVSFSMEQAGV
For a further assay, the target named is GST-tagged SIK2 (Homo sapiens (Human), UniProt Q9H0K1). Nature of the assay: SIK2 inhibition test (ADP-Glo Max Assay). Conditions: enzyme 3 nM, AMARA Peptide 200 μM, ATP 1 mM, 2 hours room temperature. The method, boiled down: as §1
GST-tagged SIK2, sequence (Q9H0K1 whole entry): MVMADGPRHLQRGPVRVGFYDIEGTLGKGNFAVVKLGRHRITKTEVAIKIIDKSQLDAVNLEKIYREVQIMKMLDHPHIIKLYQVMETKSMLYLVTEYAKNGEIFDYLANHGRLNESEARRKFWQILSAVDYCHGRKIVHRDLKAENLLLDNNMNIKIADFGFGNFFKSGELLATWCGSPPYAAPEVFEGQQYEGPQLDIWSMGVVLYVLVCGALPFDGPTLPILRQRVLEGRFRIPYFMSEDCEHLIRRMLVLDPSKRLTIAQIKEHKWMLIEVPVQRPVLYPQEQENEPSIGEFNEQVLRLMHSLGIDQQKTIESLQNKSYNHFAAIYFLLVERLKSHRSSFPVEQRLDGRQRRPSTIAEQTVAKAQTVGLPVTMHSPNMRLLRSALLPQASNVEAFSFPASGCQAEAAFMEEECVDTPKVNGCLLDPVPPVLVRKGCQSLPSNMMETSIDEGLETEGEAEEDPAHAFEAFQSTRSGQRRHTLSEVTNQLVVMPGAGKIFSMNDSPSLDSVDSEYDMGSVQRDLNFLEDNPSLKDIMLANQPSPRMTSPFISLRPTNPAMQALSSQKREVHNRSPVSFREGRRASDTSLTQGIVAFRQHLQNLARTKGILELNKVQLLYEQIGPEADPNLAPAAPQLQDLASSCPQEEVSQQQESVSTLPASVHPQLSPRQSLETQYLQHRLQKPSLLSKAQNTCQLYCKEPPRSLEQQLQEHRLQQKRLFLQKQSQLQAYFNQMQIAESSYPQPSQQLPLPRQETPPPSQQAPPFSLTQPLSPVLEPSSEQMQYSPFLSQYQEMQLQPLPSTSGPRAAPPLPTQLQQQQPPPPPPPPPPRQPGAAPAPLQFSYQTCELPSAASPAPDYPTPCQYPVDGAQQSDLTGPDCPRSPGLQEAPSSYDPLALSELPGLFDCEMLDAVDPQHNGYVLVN

GST-tagged SIK1, sequence (P57059 whole entry): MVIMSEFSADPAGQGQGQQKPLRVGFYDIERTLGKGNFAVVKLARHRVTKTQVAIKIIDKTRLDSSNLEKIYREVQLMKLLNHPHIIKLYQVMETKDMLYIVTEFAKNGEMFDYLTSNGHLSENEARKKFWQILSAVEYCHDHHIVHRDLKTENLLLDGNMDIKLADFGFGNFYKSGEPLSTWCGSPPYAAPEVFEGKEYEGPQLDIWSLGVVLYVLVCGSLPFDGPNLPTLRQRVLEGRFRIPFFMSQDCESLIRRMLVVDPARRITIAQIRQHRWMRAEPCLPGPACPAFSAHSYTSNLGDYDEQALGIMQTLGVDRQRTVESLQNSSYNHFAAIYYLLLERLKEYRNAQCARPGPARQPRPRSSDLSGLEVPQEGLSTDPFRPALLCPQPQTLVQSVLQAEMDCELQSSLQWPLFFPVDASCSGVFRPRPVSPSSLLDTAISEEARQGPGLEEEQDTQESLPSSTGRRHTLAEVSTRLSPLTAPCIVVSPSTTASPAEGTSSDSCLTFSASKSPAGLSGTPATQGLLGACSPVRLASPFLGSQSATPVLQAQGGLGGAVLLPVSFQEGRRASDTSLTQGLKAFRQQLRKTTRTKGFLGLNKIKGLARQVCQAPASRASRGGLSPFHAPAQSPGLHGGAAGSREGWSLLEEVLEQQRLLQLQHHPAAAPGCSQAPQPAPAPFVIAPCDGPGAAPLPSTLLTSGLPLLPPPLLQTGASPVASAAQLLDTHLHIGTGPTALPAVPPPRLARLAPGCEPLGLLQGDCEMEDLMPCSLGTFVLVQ

Consider `CC[C@H](O)Cn1cc(-c2cc(C#N)c3c(-c4cc(OC)c(C(=O)NCC5(F)CC5)c(OC(F)F)c4)n(C)nc3c2)cn1` [Example 93, 4-[4-cyano-6-[1-[(2S)-2-hydroxybutyl]pyrazol-4-yl]-2-methylindazol-3-yl]-2-(difluoromethoxy)-N-[(1-fluorocyclopropyl)methyl]-6-methoxybenzamide], for which the IC50 on GST-tagged SIK1 is 19.8 nM; at GST-tagged SIK3, 5.9 nM; against GST-tagged SIK2, 13.5 nM.

On to `COc1cc(-c2c3c(C#N)cc(-c4cnn(C[C@H](C)O)c4)cc3nn2C)cc(OC(F)F)c1C(=O)N[C@@H]1CC1(F)F` [Example 94, 4-[4-cyano-6-[1-[(2S)-2-hydroxypropyl]pyrazol-4-yl]-2-methylindazol-3-yl]-N-[(1R)-2,2-difluorocyclopropyl]-2-(difluoromethoxy)-6-methoxybenzamide], for which the IC50 against GST-tagged SIK1 amounted to 6.7 nM; against GST-tagged SIK3, 2.3 nM; against GST-tagged SIK2, 5 nM.

Regarding `CCCn1cc(-c2cc(C#N)c3c(-c4cc(OC)c(C(N)=O)c(OC(F)F)c4)n(C)nc3c2)cn1` [Example 96, 4-[4-cyano-2-methyl-6-(1-propylpyrazol-4-yl)indazol-3-yl]-2-(difluoromethoxy)-6-methoxybenzamide], the IC50 turned out to be 14 nM against GST-tagged SIK1, 5 nM at GST-tagged SIK3 and 3.9 nM on GST-tagged SIK2.

On to `COc1cc(-c2c3c(C#N)cc(-c4cnn(C[C@@H](O)c5ccccc5)c4)cc3nn2C)cc(OC(F)F)c1C(=O)NCC1(F)CC1` [Example 97, 4-[4-cyano-6-[1-[(2S)-2-hydroxy-2-phenylethyl]pyrazol-4-yl]-2-methylindazol-3-yl]-2-(difluoromethoxy)-N-[(1-fluorocyclopropyl)methyl]-6-methoxybenzamide], for which the figures for the IC50 on GST-tagged SIK1, at GST-tagged SIK3 and against GST-tagged SIK2 were 15.3 nM, 6.1 nM and 7.4 nM, respectively.

Consider `COc1cc(-c2c3c(C#N)cc(-c4cnn(CC(=O)N(C)C)c4)cc3nn2C)cc(OC(F)F)c1C(=O)NCC1(F)CC1` [Example 98, 4-[4-cyano-6-[1-[2-(dimethylamino)-2-oxoethyl]pyrazol-4-yl]-2-methylindazol-3-yl]-2-(difluoromethoxy)-N-[(1-fluorocyclopropyl)methyl]-6-methoxybenzamide], for which the IC50 on GST-tagged SIK1 worked out at 17.9 nM; against GST-tagged SIK3, 10.3 nM; against GST-tagged SIK2, 10.5 nM.

For the compound `COc1cc(-c2c3c(C#N)cc(-c4cnn(CC(=O)N5CC(F)(F)C5)c4)cc3nn2C)cc(OC(F)F)c1C(=O)NCC1(F)CC1` [Example 99, 4-[4-cyano-6-[1-[2-(3,3-difluoroazetidin-1-yl)-2-oxoethyl]pyrazol-4-yl]-2-methylindazol-3-yl]-2-(difluoromethoxy)-N-[(1-fluorocyclopropyl)methyl]-6-methoxybenzamide], the IC50 against GST-tagged SIK1 was found to be 19.2 nM; at GST-tagged SIK3, 4.9 nM; against GST-tagged SIK2, 5 nM.

As for `COc1cc(-c2c3c(C#N)cc(-c4cnn(CC(=O)N5CCCC5)c4)cc3nn2C)cc(OC(F)F)c1C(=O)NCC1(F)CC1` [Example 100], the IC50 is 15.5 nM at GST-tagged SIK1, 5.7 nM against GST-tagged SIK3 and 7.3 nM against GST-tagged SIK2.

In the case of `COc1cc(-c2c3c(C#N)cc(-c4cnn(CC(=O)N5CCC(F)(F)C5)c4)cc3nn2C)cc(OC(F)F)c1C(=O)NCC1(F)CC1` [Example 101, 4-[4-cyano-6-[1-[2-(3,3-difluoropyrrolidin-1-yl)-2-oxoethyl]pyrazol-4-yl]-2-methylindazol-3-yl]-2-(difluoromethoxy)-N-[(1-fluorocyclopropyl)methyl]-6-methoxybenzamide], the IC50 on GST-tagged SIK1 came out at 15 nM; on GST-tagged SIK3, 12 nM; against GST-tagged SIK2, 5.8 nM.

Regarding `COc1cc(-c2c3c(C#N)cc(-c4cnn(CC(F)F)c4)cc3nn2C)cc(OC(F)F)c1C(N)=O` [Example 102, 4-[4-cyano-6-[1-(2,2-difluoroethyl)pyrazol-4-yl]-2-methylindazol-3-yl]-2-(difluoromethoxy)-6-methoxybenzamide], the IC50 at GST-tagged SIK1 is 19.2 nM; against GST-tagged SIK3, 5.1 nM; on GST-tagged SIK2, 5.3 nM.

For `COc1cc(-c2c3c(OCc4cncc(F)c4)cc(-c4cnn(C)c4)cc3nn2C)cc(OC(F)F)c1C(=O)N1CC(O)(C(F)(F)F)C1` [Example 103, [2-(difluoromethoxy)-4-[4-[(5-fluoropyridin-3-yl)methoxy]-2-methyl-6-(1-methylpyrazol-4-yl)indazol-3-yl]-6-methoxyphenyl]-[3-hydroxy-3-(trifluoromethyl)azetidin-1-yl]methanone], the IC50 turned out to be 4.4 nM against GST-tagged SIK1, 4.8 nM on GST-tagged SIK3 and 1.6 nM at GST-tagged SIK2.

Take `COc1cc(-c2c3c(OCc4cncc(C#N)c4)cc(-c4cnn(C)c4)cc3nn2C)cc(OC(F)F)c1C(=O)N1CC(O)(C(F)(F)F)C1` [Example 104, 5-[[3-[3-(difluoromethoxy)-4-[3-hydroxy-3-(trifluoromethyl)azetidin-1-carbonyl]-5-methoxyphenyl]-2-methyl-6-(1-methylpyrazol-4-yl)indazol-4-yl]oxymethyl]pyridine-3-carbonitrile]: the IC50 is 6.4 nM against GST-tagged SIK1, 4.8 nM on GST-tagged SIK3 and 1.8 nM against GST-tagged SIK2.

As for `COc1cc(-c2c3c(C(F)F)cc(-c4cnn(CC(C)(C)O)c4)cc3nn2C)cc(OC(F)F)c1C(=O)N[C@@H]1CC1(F)F` [Example 109], the half-maximal inhibitory concentration (IC50) against GST-tagged SIK1 worked out at 18 nM; against GST-tagged SIK3 it was 2.3 nM; on GST-tagged SIK2 it was 18.1 nM.

As to `COc1cc(-c2c3c(C#N)cc(-c4cnn(CC5(O)CCC5)c4)cc3nn2C)cc(OC(F)F)c1C(=O)N[C@@H]1CC1(F)F` [Example 110, 4-[4-cyano-6-[1-[(1-hydroxycyclobutyl)methyl]pyrazol-4-yl]-2-methylindazol-3-yl]-N-[(1R)-2,2-difluorocyclopropyl]-2-(difluoromethoxy)-6-methoxybenzamide], the IC50 against GST-tagged SIK1 came to 6.5 nM; at GST-tagged SIK3, 1.7 nM; on GST-tagged SIK2, 3.2 nM.

With `COc1cc(-c2c3c(C#N)cc(-c4cnn(CCC(C)(C)O)c4)cc3nn2C)cc(OC(F)F)c1C(=O)N[C@@H]1CC1(F)F` [Example 111, 4-[4-cyano-6-[1-(3-hydroxy-3-methylbutyl)pyrazo]-4-yl]-2-methylindazol-3-yl]-N-[(1R)-2,2-difluoro[cyclopropyl]-2-(difluoromethoxy)-6-methoxybenzamide], the IC50 on GST-tagged SIK1 was found to be 6.2 nM; against GST-tagged SIK3, 1.7 nM; against GST-tagged SIK2, 1.7 nM.

Consider `CCn1cc(-c2cc(C(F)F)c3c(-c4cc(OC)c(C(N)=O)c(OC(F)F)c4)n(C)nc3c2)cn1` [Example 112, 2-(difluoromethoxy)-4-[4-(difluoromethyl)-6-(1-ethylpyrazol-4-yl)-2-methylindazol-3-yl]-6-methoxybenzamide], for which the figures for the IC50 against GST-tagged SIK1, against GST-tagged SIK3 and against GST-tagged SIK2 were 16.6 nM, 3 nM and 13.7 nM, respectively.

Regarding `CCCn1cc(-c2cc(C(F)F)c3c(-c4cc(OC)c(C(N)=O)c(OC(F)F)c4)n(C)nc3c2)cn1` [Example 113, 2-(difluoromethoxy)-4-[4-(difluoromethyl)-2-methyl-6-(1-propylpyrazol-4-yl)indazol-3-yl]-6-methoxybenzamide], the 50% inhibitory concentration (IC50) against GST-tagged SIK1 worked out at 19.7 nM; against GST-tagged SIK3, 2.7 nM; against GST-tagged SIK2, 15.6 nM.

Turning to `COc1cc(-c2c3c(C#N)cc(-c4cnn(CC(C)(C)O)c4)cc3nn2C)cc(OC(F)F)c1C(=O)N[C@@H]1CC1(F)F` [Example 114], the IC50 on GST-tagged SIK1 was 12.6 nM; on GST-tagged SIK3, 0.7 nM; at GST-tagged SIK2 it was 4.1 nM.

Consider `COc1cc(-c2c3c(C#N)cc(-c4cnn(CC(F)F)c4)cc3nn2C)cc(OC(F)F)c1C(=O)N[C@@H]1CC1(F)F` [Example 115, 4-[4-cyano-6-[1-(2,2-difluoroethyl)pyrazol-4-yl]-2-methylindazol-3-yl]-N-[(1R)-2,2-difluorocyclopropyl]-2-(difluoromethoxy)-6-methoxybenzamide], for which the concentration for half-maximal inhibition (IC50) was 9.4 nM on GST-tagged SIK1, below 0.6 nM at GST-tagged SIK3 and 2.4 nM against GST-tagged SIK2.

Consider `CCn1cc(-c2cc(C(F)F)c3c(-c4cc(OC)c(C(=O)N[C@@H]5CC5(F)F)c(OC(F)F)c4)n(C)nc3c2)cn1` [Example 116, N-[(1R)-2,2-difluorocyclopropyl]-2-(difluoromethoxy)-4-[4-(difluoromethyl)-6-(1-ethylpyrazol-4-yl)-2-methylindazol-3-yl]-6-methoxybenzamide], for which the results for the concentration for half-maximal inhibition (IC50) on GST-tagged SIK1, at GST-tagged SIK3 and at GST-tagged SIK2 were 16.1 nM, 1.1 nM and 5.8 nM, respectively.

`COc1cc(-c2c3c(C(F)F)cc(-c4cnn(CC5(O)CCC5)c4)cc3nn2C)cc(OC(F)F)c1C(=O)N[C@@H]1CC1(F)F` [Example 117, N-[(1R)-2,2-difluorocyclopropyl]-2-(difluoromethoxy)-4-[4-(difluoromethyl)-6-[1-[(1-hydroxycyclobutyl)methyl]pyrazol-4-yl]-2-methylindazol-3-yl]-6-methoxybenzamide]: the figures for the half-maximal inhibitory concentration (IC50) on GST-tagged SIK1, against GST-tagged SIK3 and against GST-tagged SIK2 were 12.5 nM, 1 nM and 9.3 nM, respectively.

As for `CCn1cc(-c2cc(C#N)c3c(-c4cc(OC)c(C(=O)N[C@@H]5CC5(F)F)c(OC(F)F)c4)n(C)nc3c2)cn1` [Example 118, 4-[4-cyano-6-(1-ethylpyrazol-4-yl)-2-methylindazol-3-yl]-N-[(1R)-2,2-difluorocyclopropyl]-2-(difluoromethoxy)-6-methoxybenzamide], the IC50 came to 5.3 nM against GST-tagged SIK1, 0.6 nM at GST-tagged SIK3 and 1 nM at GST-tagged SIK2.

Regarding `COc1cc(-c2c3c(C(F)F)cc(-c4cnn(CCC(C)(C)O)c4)cc3nn2C)cc(OC(F)F)c1C(=O)N[C@@H]1CC1(F)F` [Example 119], the IC50 against GST-tagged SIK1 was 3.9 nM; at GST-tagged SIK3, 0.7 nM; against GST-tagged SIK2, 2.6 nM.
